The subject of series [1] is HeLa (uterine cancer cells). In words: Inhibition of growth of tumor cells (SRB assay), HeLa. The format is cell-based. The note with it: 0.01-100 μg/mL, cultured 48 hours. As for the experimental part:
(§1) Cells were cultured in Dulbecco's modified Eagle's medium (hereunder referred to as DMEM) containing 5-10% fetal bovine serum and L-glutamine in an incubator of 37° C. and 5% CO2. Adherent cells were suspended using a trypsin-EDTA solution and isolated and collected for testing.
(§2) The cells were cultured on a 96-well plate, 5×10^3-10^4 cells each. After treating with the extract and the active ingredient at a concentration of 0, 0.01, 0.1, 1, 10 and 100 μg/mL, the cells were cultured for 48 hours. After culturing for […], the culture medium was removed from each well and 200 μL of 10% TCA (trichloroacetic acid) was added. The cells were fixed to the bottom of the plate by letting alone at 4° C. for 1 hour. After fixation, the plate was washed with distilled water for 5-6 times to remove the remaining TCA solution and then completely dried. To the plate was added 200 μL of a staining solution per each well, which was prepared by dissolving 0.4% SRB solution in 1% acetic acid solution. After 30 minutes' staining, the plate was washed with 1% acetic acid solution for 5-6 times to remove excess SRB. The plate was dried at room temperature and 200 μL of 10 mM trisma base solution (unbuffered) was added per each well. After 10 minutes' of shaking using a titer plate shaker to elute out the staining solution, light absorbance was measured at 540 nm using a microplate reader.
(The SRB assay estimates cell density from bound dye.)

The test system of series [2] is MCF7 (breast cancer cells). In words: Inhibition of growth of tumor cells (SRB assay), MCF7. The series is classed as cell-based. The following applies: 0.01-100 μg/mL, cultured 48 hours. As for the experimental part:
as §1, §2

Series [3] concerns MDA-MB-231 (breast cancer cells). Description: Inhibition of growth of tumor cells (SRB assay), MDA-MB-231. The format is cell-based. The following applies: MDA-MB-231 cells, 0.01-100 μg/mL, cultured 48 hours. The protocol: as §1, §2
For a further series, the system named is SK-OV-3 (cancer cells). Description: Inhibition of growth of tumor cells (SRB assay), SK-OV-3. The format is cell-based. The following applies: Homo sapiens, SK-OV-3 cells, 0.01-100 μg/mL, cultured 48 hours, read-out: Inhibitory effect against growth of cancer cells IC50 SK-OV-3. The protocol: as §1, §2
For a further series, the system named is A549 (lung cancer cells). Description: Inhibition of growth of tumor cells (SRB assay), A549. The format is cell-based. The note with it: 0.01-100 μg/mL, cultured 48 hours. The protocol:
as §1, §2

The test system of series [4] is HCT15 (colon cancer cells). Description: Inhibition of growth of tumor cells (SRB assay), HCT15. The format is cell-based. The following applies: cultured 48 hours; for Inhibitory effect against growth of cancer cells IC50 HCT15: 0.01-100 μg/mL. The protocol:
as §1, §2

In series [5] the test system is mice. Description: Toxicity test, oral administration to mice. The series is classed as in vivo. The note with it: orally, in corn oil, 1, 10 and 100 mg/kg, 7 days. As for the experimental part:
(§3) Toxicity test was performed as follows for the Androsace umbellata Merr. extract, fraction thereof and saxifragifolins B and D of the present invention.
(§4) Each of the Androsace umbellata Merr. extract, fraction thereof and saxifragifolins D and B was dissolved in 1% sodium carboxymethlycellulose and diluted with water. The solution was intraperitoneally injected to mice (10 per each group) at a dose of 0, 0.016, 0.8, 4, 20 and 100 mg/kg. […] No mouse died in the Androsace umbellata Merr. extract group. All the 10 mice of the 100 mg/kg Androsace umbellata Merr. fraction group died right after the administration and two died in the 20 mg/kg group. 3 mice died in each of the 20 mg/kg saxifragifolin B and saxifragifolin D groups. No more mice died until the 7th day. […] When the Androsace umbellata Merr. extract, fraction thereof and saxifragifolins D and B were dissolved in corn oil and orally administered at a dose of 1, 10 and 100 mg/kg, no mice died for 7 days.

Series [6] deals with SK-OV-3 (uterine cancer cells). Description: Inhibition of growth of tumor cells (SRB assay), SK-OV-3. The series is classed as cell-based. The following applies: SK-OV-3 cells, 0.01-100 μg/mL, cultured 48 hours. The protocol:
as §1, §2

For series [7], the system named is mice. Description: Toxicity test, intraperitoneal injection to mice. The following applies: for Mice died: intraperitoneal, 20 mg/kg, 10 mice per group, observed 7 days; for Cause of the death of the mice: right after the intraperitoneal injection. The series is classed as in vivo. The protocol:
as §3, §4

In brackets after ≈: the same amount, converted by molar mass.

On to `COc1cccc2c1C(=O)c1c(O)c3c(c(O)c1C2=O)C[C@@](O)(C(=O)CO)C[C@@H]3O[C@H]1C[C@H](N)[C@H](O)[C@H](C)O1` [Doxorubicin, reference compound], for which the IC50 in [1] (Homo sapiens, read-out: Inhibitory effect against growth of cancer cells IC50 HeLa) was 0.21 ± 0.01 µg/mL (≈ 0.386 µM); in [2] (Homo sapiens, read-out: Inhibitory effect against growth of cancer cells IC50 MCF7), 0.5 ± 0.02 µg/mL (≈ 0.92 µM); in series [3] (Homo sapiens, read-out: Inhibitory effect against growth of cancer cells IC50 MDA-MB-231), 0.02 ± 0.01 µg/mL (≈ 0.0368 µM); in the series with SK-OV-3 (cancer cells), 0.77 ± 0.03 µg/mL (≈ 1.42 µM); with A549 (lung cancer cells) (Homo sapiens, read-out: Inhibitory effect against growth of cancer cells IC50 A549), 0.011 ± 0.01 µg/mL (≈ 0.0202 µM); in [4] (Homo sapiens, HCT-15, 0.01-100 μg/mL, read-out: Inhibitory effect against growth of cancer cells IC50 HCT15) it was 0.014 ± 0.02 µg/mL (≈ 0.0258 µM).
“cyclamiretin A 3-O-{β-D-glucopyranosyl-(1→4)-β-D-glucopyranosyl-(1→2)-β-D-xylopyranosyl-(1→2)-β-D-glucopyranosyl-(1→4)-α-L-arabinopyranoside} [Saxifragifolin D]”: the Mice died result in the series on mice [5] was “no mice died”. Besides, in series [1], the “Inhibitory effect against growth of cancer cells IC50 HeLa” value turned out to be 0.98 ± 0.05 µg/mL. The “Inhibitory effect against growth of cancer cells IC50 MCF7” value in series [2] came to 3.23 ± 0.10 µg/mL. Further, in series [3], the “Inhibitory effect against growth of cancer cells IC50 MDA-MB-231” value worked out at 1.32 ± 0.03 µg/mL. Moreover, the “Inhibitory effect against growth of cancer cells IC50 SK-OV-3” value in series [6] was 6.36 ± 0.12 µg/mL. Besides, in the series with mice [7], the Mice died is 3 mice and the “Cause of the death of the mice” value is “hemolysis of red blood cells”. For the same compound, in the series with A549 (lung cancer cells), the “Inhibitory effect against growth of cancer cells IC50 A549” value amounted to 0.016 ± 0.01 µg/mL. In addition, in [4], the “Inhibitory effect against growth of cancer cells IC50 HCT15” value was 0.558 ± 0.24 µg/mL.
Regarding “cyclamiretin A 3-O-{β-D-xylopyranosyl-(1→2)-β-D-glucopyranosyl-(1→4)-β-D-glucopyranosyl-(1→2)-α-L-arabinopyranoside} [Saxifragifolin B]”, the Mice died result is “no mice died” in the series with mice [5] and 3 mice in the series with mice [7]. Moreover, the “Inhibitory effect against growth of cancer cells IC50 HeLa” value in series [1] worked out at 1.22 ± 0.04 µg/mL. The “Inhibitory effect against growth of cancer cells IC50 MCF7” value in series [2] turned out to be 6.88 ± 0.13 µg/mL. Besides, the “Inhibitory effect against growth of cancer cells IC50 MDA-MB-231” value in [3] came to 3.02 ± 0.02 µg/mL. The “Inhibitory effect against growth of cancer cells IC50 SK-OV-3” value in series [6] was found to be 8.39 ± 0.23 µg/mL. Besides, in the series with mice [7], the “Cause of the death of the mice” value is reported as “hemolysis of red blood cells”. Further, in the series with A549 (lung cancer cells), the “Inhibitory effect against growth of cancer cells IC50 A549” value came out at 0.036 ± 0.02 µg/mL. Also, in series [4], the “Inhibitory effect against growth of cancer cells IC50 HCT15” value came to 0.183 ± 0.17 µg/mL.

By IC50 is commonly meant the concentration that gives 50% inhibition.

(Values after US7960352B2, “Anti-cancer activity of Androsace umbellata Merr. extract and contained triterpene saponin” (Sungkyunkwan University Foundation for Corporate …, priority 2005, dated 2011).)
